Data from patent publication EP2033655B1 (priority 2007, dated 2009).
Side chains are listed from the residue outwards. Peptide text beside a SMILES is read from it. * marks the point of attachment. X1 = NCCCC[C@H](N)CN1CCC[C@H]1C(=O)*

Biological target: T1, cell-surface expressed nucleolin (Homo sapiens, UniProt P19338)
T1 construct: endogenous in cells; host or cells: HeLa P4 cells
Experiment: cell-based

T1 sequence (P19338 whole entry): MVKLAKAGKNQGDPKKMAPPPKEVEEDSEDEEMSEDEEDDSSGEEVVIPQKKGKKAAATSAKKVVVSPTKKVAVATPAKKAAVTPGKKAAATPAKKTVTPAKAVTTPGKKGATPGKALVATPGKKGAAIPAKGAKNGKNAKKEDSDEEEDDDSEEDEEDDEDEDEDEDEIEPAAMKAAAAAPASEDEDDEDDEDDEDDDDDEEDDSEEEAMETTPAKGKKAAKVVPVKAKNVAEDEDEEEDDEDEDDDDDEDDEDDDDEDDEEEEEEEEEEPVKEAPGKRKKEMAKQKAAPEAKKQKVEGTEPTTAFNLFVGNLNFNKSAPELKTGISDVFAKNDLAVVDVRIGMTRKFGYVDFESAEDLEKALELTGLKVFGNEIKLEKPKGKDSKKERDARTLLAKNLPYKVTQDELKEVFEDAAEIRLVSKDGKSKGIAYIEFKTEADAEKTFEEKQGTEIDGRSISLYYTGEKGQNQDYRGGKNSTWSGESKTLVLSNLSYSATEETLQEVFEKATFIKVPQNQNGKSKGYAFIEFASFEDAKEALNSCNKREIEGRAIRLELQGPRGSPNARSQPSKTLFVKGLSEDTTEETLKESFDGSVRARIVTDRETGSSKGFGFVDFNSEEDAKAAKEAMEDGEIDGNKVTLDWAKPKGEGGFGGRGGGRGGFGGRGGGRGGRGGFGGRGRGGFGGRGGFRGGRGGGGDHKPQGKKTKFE

Work on `CC(=O)N[C@@H](CCCCNC(=O)[C@H](CCCNC(=N)N)NC(=O)[C@@H]1CCCN1C[C@@H](N)CCCCN)C(=O)N[C@@H](C)C(=O)N[C@@H](CCCCNC(=O)[C@H](CCCNC(=N)N)NC(=O)[C@@H]1CCCN1C[C@@H](N)CCCCN)C(=O)N1CCC[C@H]1C(=O)NCC(=O)N[C@@H](CCCCNC(=O)[C@H](CCCNC(=N)N)NC(=O)[C@@H]1CCCN1C[C@@H](N)CCCCN)C(=O)N[C@@H](C)C(=O)N[C@@H](CCCCNC(=O)[C@H](CCCNC(=N)N)NC(=O)[C@@H]1CCCN1C[C@@H](N)CCCCN)C(=O)N1CCC[C@H]1C(=O)NCC(=O)N[C@@H](CCCCNC(=O)[C@H](CCCNC(=N)N)NC(=O)[C@@H]1CCCN1C[C@@H](N)CCCCN)C(=O)N[C@@H](C)C(=O)N[C@@H](CCCCNC(=O)[C@H](CCCNC(=N)N)NC(=O)[C@@H]1CCCN1C[C@@H](N)CCCCN)C(=O)N1CCC[C@H]1C(=O)NCC(N)=O` [Nucant 7] (Ac-K([Arg-X1])AK([Arg-X1])PGK([Arg-X1])AK([Arg-X1])PGK([Arg-X1])AK([Arg-X1])PG-NH2) yielded an IC50 of less than 100 nM and an inhibition at 0.8 µM (HeLaP4, read-out: inhibitory activity) greater than 95%.
